The values below come from patent EP4745138A1, “THIO-GLUTARIMIDO ISOINDOLINONE DERIVATIVE, BIFUNCTIONAL PROTEIN DEGRADER CONTAINING SAME, AND USES THEREOF” (Gluetacs Therapeutics (Shanghai) Co., Ltd., priority 2023, dated 2025).

SMILES strings stand for the structures.

The assay concerns the target T1, human Cereblon WT GST-tagged protein (Homo sapiens, UniProt Q96SW2).
T1 construct: purchased CISBIO 64BDCRBNPEH
Description: CRBN-binding affinity, HTRF (CEREBLON BINDING kit). As to conditions: for inhibition at 0.5 µM: read-out: Inhibition Rate at 0.5 µM (%); for inhibition at 2 µM: read-out: Inhibition Rate at 2 µM (%). An excerpt: The CEREBLON BINDING kits (specification: 10,000 tests; product number: Catalog # 64BDCRBNPEH; CISBIO company) was used to determine the CRBN binding ability of the compounds to be tested through a HTRF method (homogeneous time-resolved fluorescence). The specific methods are as follows: • 1. […] Specifically, diluent #9 (1X) solution was used as the diluent, and multiple concentration gradients were set. […] Into the 96-well plate, the diluted test compounds and corresponding detection reagents were added, resulting in final test compound concentrations of 2 µM and 0.5 µM, respectively. […] Then, 2.5 µL of human Cereblon WT GST-tagged protein solution was added to each well. Finally, 5 µL of the thoroughly mixed Thalidomide-Re reagent and GST Eu antibody working solution were added to each of the aforementioned wells. […] The blank control wells were sequentially added with 2.5 µL of diluent #9 (1X) solution, 2.5 µL of PROTAC binding buffer, and 5 µL of thoroughly mixed Thalidomide-Re reagent and GST Eu antibody working solution. • 4.

T1 sequence (Q96SW2 whole entry): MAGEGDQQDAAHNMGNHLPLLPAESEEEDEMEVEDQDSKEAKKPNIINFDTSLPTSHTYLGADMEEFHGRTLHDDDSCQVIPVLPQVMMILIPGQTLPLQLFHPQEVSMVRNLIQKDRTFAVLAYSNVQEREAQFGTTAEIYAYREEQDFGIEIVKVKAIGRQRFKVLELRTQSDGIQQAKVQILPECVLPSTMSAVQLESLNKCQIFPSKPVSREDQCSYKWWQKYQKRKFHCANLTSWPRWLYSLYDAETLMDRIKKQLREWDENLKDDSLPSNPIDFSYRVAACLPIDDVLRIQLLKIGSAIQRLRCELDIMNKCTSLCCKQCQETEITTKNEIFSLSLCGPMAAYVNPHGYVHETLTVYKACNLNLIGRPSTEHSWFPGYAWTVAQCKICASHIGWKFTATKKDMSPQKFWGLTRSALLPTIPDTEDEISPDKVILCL

A word on the inhibition: it is the drop in the measured response relative to a control, in per cent. As to `COc1ccc2cn(C3CCN(Cc4ccc5c(c4)CN(C4CCC(=O)NC4=O)C5=S)CC3)nc2c1NC(=O)c1cccc(C(F)(F)F)c1` (centres unmarked) [GT-09413, N-(2-(1-((2-(2,6-dioxopiperidin-3-yl)-1-thioxoisoindolin-5-yl)methyl)piperidin-4-yl)-6-methoxy-2H-indazol-7-yl)-3-(trifluoromethyl)benzamide], the inhibition at 0.5 µM lay in the range of 60 to 80% and the inhibition at 2 µM fell in the range of 100 to 110%.
As for `O=C1CCC(N2Cc3cc(CN4CCC(NC(=O)c5n[nH]cc5NC(=O)c5c(Cl)cccc5Cl)CC4)ccc3C2=S)C(=O)N1` (centres unmarked) [GT-09434, 4-(2,6-dichlorobenzamido)-N-(1-((2-(2,6-dioxopiperidin-3-yl)-1-thioxoisoindolin-5-yl)methyl)piperidin-4-yl)-1H-pyrazole-3-carboxamide], the inhibition at 0.5 µM lay within 53 to 60% and the inhibition at 2 µM fell in the range of 80 to 100%.
For `CC(=O)c1c(C)c2cnc(Nc3ccc(N4CCN(Cc5ccc6c(c5)C(=S)N(C5CCC(=O)NC5=O)C6)CC4)cn3)nc2n(C2CCCC2)c1=O` (centres unmarked) [GT-09428, 3-(6-((4-(6-((6-acetyl-8-cyclopentyl-5-methyl-7-oxo-7,8-dihydropyrido[2,3-d]pyrimidin-2-yl)amino)pyridin-3-yl)piperazin-1-yl)methyl)-1-thioxoisoindolin-2-yl)piperidine-2,6-dione], the inhibition at 0.5 µM fell in the range of 40 to 53% and the inhibition at 2 µM lay in the range of 60 to 80%.
For the compound `Nc1nnc(-c2ccccc2O)cc1N1CCN(Cc2ccc3c(c2)CN(C2CCC(=O)NC2=O)C3=S)CC1` (centres unmarked) [GT-08785, 3-(5-((4-(3-amino-6-(2-hydroxyphenyl)pyridazin-4-yl)piperazin-1-yl)methyl)-1-thioxoisoindolin-2-yl)piperidine-2,6-dione], the inhibition at 0.5 µM fell in the range of 60 to 80% and the inhibition at 2 µM lay within 80 to 100%.
Taken in the same sequence, the figures for `Cc1cc(-c2nc(C(=O)Nc3cc4oc(N5CCOCC5)nc4nc3N3CC[C@@H](O)C3)co2)ccn1` [emavusertib, Emavusertib, reference compound] were 0 to 10% and 0 to 10%.
In the same order, the values of `COc1cc2nn(C3CCN(Cc4ccc5c(c4)CN(C4CCC(=O)NC4=O)C5=S)CC3)cc2cc1NC(=O)c1cccc(C(F)(F)F)c1` (centres unmarked) [GT-05295, N-(2-(1-((2-(2,6-dioxopiperidin-3-yl)-1-thioxoisoindolin-5-yl)methyl)piperidin-4-yl)-6-methoxy-2H-indazol-5-yl)-3-(trifluoromethyl)benzamide] are 60 to 80% and 80 to 100%.
Take `Cn1c2ccncc2c2ccc(-c3cnc(N4CCN(Cc5ccc6c(c5)CN(C5CCC(=O)NC5=O)C6=S)CC4)c(Cl)c3)cc21` (centres unmarked) [GT-08978, 3-(5-((4-(3-chloro-5-(5-methyl-5H-pyrido[4,3-b]indol-7-yl)pyridin-2-yl)piperazin-1-yl)methyl)-1-thioxoisoindolin-2-yl)piperidine-2,6-dione]: the inhibition at 0.5 µM lay in the range of 60 to 80% and the inhibition at 2 µM was 60 to 80%.
In the case of `CC(C)(O)c1cc2nc(C3CCN(Cc4ccc5c(c4)CN(C4CCC(=O)NC4=O)C5=S)CC3)sc2cc1NC(=O)c1cccc(C(F)(F)F)n1` (centres unmarked) [GT-05298, N-(2-(1-((2-(2,6-dioxopiperidin-3-yl)-1-thioxoisoindolin-5-yl)methyl)piperidin-4-yl)-5-(2-hydroxypropan-2-yl)benzo[d]thiazol-6-yl)-6-(trifluoromethyl)picolinamide], the inhibition at 0.5 µM fell in the range of 80 to 100% and the inhibition at 2 µM lay within 80 to 100%.
As to `Cc1cc(-c2ccc3c4cnccc4n(C)c3c2)cnc1N1CCN(Cc2ccc3c(c2)CN(C2CCC(=O)NC2=O)C3=S)CC1` (centres unmarked) [GT-08980, 3-(5-((4-(3-methyl-5-(5-methyl-5H-pyrido[4,3-b]indol-7-yl)pyridin-2-yl)piperazin-1-yl)methyl)-1-thioxoisoindolin-2-yl)piperidine-2,6-dione], the inhibition at 0.5 µM lay in the range of 40 to 53% and the inhibition at 2 µM fell in the range of 60 to 80%.
In the same order, the values of `CN(c1nccnc1CNc1nc(Nc2ccc(N3CCN(Cc4ccc5c(c4)C(=S)N(C4CCC(=O)NC4=O)C5)CC3)cc2)ncc1C(F)(F)F)S(C)(=O)=O` (centres unmarked) [GT-09437, N-(3-(((2-((4-(4-((2-(2,6-dioxopiperidin-3-yl)-3-thioxoisoindolin-5-yl)methyl)piperazin-1-yl)phenyl)amino)-5-(trifluoromethyl)pyrimidin-4-yl)amino)methyl)pyrazin-2-yl)-N-methylmethanesulfonamide] are 40 to 53% and 60 to 80%.
Taken in the same sequence, the figures for `Nc1ncnc2c1c(-c1ccc(Oc3ccccc3)cc1)nn2C1CCN(Cc2ccc3c(c2)C(=S)N(C2CCC(=O)NC2=O)C3)CC1` (centres unmarked) [GT-09441, 3-(6-((4-(4-amino-3-(4-phenoxyphenyl)-1H-pyrazolo[3,4-d]pyrimidin-1-yl)piperidin-1-yl)methyl)-1-thioxoisoindolin-2-yl)piperidine-2,6-dione] were 40 to 53% and 80 to 100%.
Taken in the same sequence, the figures for `Nc1nnc(-c2cc(F)ccc2O)cc1N1CC2CCC(C1)N2Cc1cccc2c1CN(C1CCC(=O)NC1=O)C2=S` (centres unmarked) [GT-08790, 3-(4-((3-(3-amino-6-(5-fluoro-2-hydroxyphenyl)pyridazin-4-yl)-3,8-diazabicyclo[3.2.1]octan-8-yl)methyl)-1-thioxoisoindolin-2-yl)piperidine-2,6-dione] were 60 to 80% and 80 to 100%.
`CC(C)Nc1cc(-n2ccc3cc(C#N)cnc32)ncc1C(=O)NC1CCN(Cc2ccc3c(c2)CN(C2CCC(=O)NC2=O)C3=S)CC1` (centres unmarked) [GT-05294, 6-(5-cyano-1H-pyrrolo[2,3-b]pyridin-1-yl)-N-(1-((2-(2,6-dioxopiperidin-3-yl)-1-thioxoisoindolin-5-yl)methyl)piperidin-4-yl)-4-(isopropylamino)nicotinamide]: the inhibition at 0.5 µM is 60 to 80% and the inhibition at 2 µM fell in the range of 80 to 100%.
`Nc1nnc(-c2cc(F)ccc2O)cc1N1CCN(Cc2ccc3c(c2)C(=S)N(C2CCC(=O)NC2=O)C3)CC1` (centres unmarked) [GT-08789, 3-(6-((4-(3-amino-6-(5-fluoro-2-hydroxyphenyl)pyridazin-4-yl)piperazin-1-yl)methyl)-1-thioxoisoindolin-2-yl)piperidine-2,6-dione]: the inhibition at 0.5 µM was in the range of 60 to 80% and the inhibition at 2 µM lay in the range of 80 to 100%.
Taken in the same sequence, the figures for `CN(c1cccc(CNc2nc(Nc3ccc(N4CCN(Cc5ccc6c(c5)C(=S)N(C5CCC(=O)NC5=O)C6)CC4)cc3)ncc2C(F)(F)F)c1)S(C)(=O)=O` (centres unmarked) [GT-09438, N-(3-(((2-((4-(4-((2-(2,6-dioxopiperidin-3-yl)-3-thioxoisoindolin-5-yl)methyl)piperazin-1-yl)phenyl)amino)-5-(trifluoromethyl)pyrimidin-4-yl)amino)methyl)phenyl)-N-methylmethanesulfonamide] were 53 to 60% and 60 to 80%.
In the same order, the values of `COc1cc2nn(C3CCN(Cc4cccc5c4CN(C4CCC(=O)NC4=O)C5=S)CC3)cc2cc1NC(=O)c1cccc(C(F)(F)F)c1` (centres unmarked) [GT-09414, N-(2-(1-((2-(2,6-dioxopiperidin-3-yl)-1-thioxoisoindolin-4-yl)methyl)piperidin-4-yl)-6-methoxy-2H-indazol-5-yl)-3-(trifluoromethyl)benzamide] are 20 to 30% and 60 to 80%.
